Key:
[1] = Clinical pharmacokinetics in healthy subjects (bioavailability, food effect, distribution, excretion); type: in vivo, human
UGT1A1 = target: T1, UGT1A1 (Homo sapiens, UniProt P22309); assay: In vitro enzyme inhibition, UGT1A1; type: in vitro ADME
T1 sequence (P22309 26-533): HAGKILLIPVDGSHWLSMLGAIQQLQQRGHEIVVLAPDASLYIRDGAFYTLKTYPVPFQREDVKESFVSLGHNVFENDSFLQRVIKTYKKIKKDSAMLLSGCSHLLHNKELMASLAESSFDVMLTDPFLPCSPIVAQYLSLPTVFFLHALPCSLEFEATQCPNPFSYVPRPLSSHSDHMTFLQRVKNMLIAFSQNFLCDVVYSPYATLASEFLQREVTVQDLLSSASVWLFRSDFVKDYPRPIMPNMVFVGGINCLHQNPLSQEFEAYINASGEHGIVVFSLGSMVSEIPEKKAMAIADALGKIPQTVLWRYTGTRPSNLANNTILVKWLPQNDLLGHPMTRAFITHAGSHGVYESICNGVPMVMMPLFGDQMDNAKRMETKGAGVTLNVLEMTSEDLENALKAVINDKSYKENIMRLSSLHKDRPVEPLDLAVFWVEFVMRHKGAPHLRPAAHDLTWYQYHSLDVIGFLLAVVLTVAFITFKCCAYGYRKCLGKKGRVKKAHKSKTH

human serum albumin = human serum albumin (Homo sapiens, UniProt P02768); assay: In vitro protein binding, human serum albumin; type: in vitro ADME
rats = assay: Combined male and female rat fertility study; type: in vivo; conditions: oral
Excerpt: In a combined male and female rat fertility study, belumosudil-treated male animals were mated with untreated females, or untreated males were mated with belumosudil-treated females.

BCRP = target: T2, BCRP (Homo sapiens, UniProt Q9UNQ0); assay: In vitro transporter study, BCRP; type: in vitro ADME; conditions: at clinically relevant concentrations
T2 sequence (Q9UNQ0 1-655): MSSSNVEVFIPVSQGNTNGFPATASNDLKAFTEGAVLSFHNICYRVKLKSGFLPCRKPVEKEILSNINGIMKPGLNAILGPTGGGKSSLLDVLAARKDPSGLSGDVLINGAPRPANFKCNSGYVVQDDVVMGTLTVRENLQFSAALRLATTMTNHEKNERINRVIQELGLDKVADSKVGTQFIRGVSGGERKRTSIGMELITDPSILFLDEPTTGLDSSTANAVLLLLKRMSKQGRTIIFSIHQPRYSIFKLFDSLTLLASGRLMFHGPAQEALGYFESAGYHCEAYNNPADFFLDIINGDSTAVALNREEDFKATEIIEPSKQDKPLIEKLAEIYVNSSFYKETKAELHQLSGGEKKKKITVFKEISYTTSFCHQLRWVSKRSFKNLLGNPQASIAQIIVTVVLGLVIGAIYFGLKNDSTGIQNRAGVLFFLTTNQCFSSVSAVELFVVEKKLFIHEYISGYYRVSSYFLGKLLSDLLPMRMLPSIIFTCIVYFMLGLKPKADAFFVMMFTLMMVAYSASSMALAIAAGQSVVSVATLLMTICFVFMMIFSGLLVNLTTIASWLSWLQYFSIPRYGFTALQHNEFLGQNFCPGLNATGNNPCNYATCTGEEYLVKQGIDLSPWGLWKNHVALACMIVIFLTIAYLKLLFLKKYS

P-gp = P-gp (Homo sapiens, UniProt P08183); assay: In vitro transporter study, P-gp; type: in vitro ADME
[2] = test system: patients with chronic GVHD; conditions: human, in vivo;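 further: allogeneic HCT recipients aged ≥12 years with persistent cGVHD after two to five earlier systemic treatment lines, responses judged by site investigators, 12-month analysis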
Excerpt: Concomitant treatment with supportive care therapies for chronic GVHD was permitted. […] Initiation of new systemic chronic GVHD therapy while on study was not permitted.
Eligible subjects were allogeneic hematopoietic cell transplant recipients aged ≥12 years with persistent cGVHD manifestations after receiving 2 to 5 prior systemic lines of therapy. Subjects were required to be receiving stable corticosteroid therapy for 2 weeks prior to screening and to have a Karnofsky or Lansky Performance Status Scale score≥60. Certain concurrent immunosuppressive medications were allowed because drug-drug interactions were not anticipated.
Randomization was stratified (1:1) by cGVHD severity and prior exposure to ibrutinib.
All responses were assessed by the study site investigators. Secondary end points included duration of response (DOR), time to response, changes in LSS summary score, failure-free survival (FFS), corticosteroid dose reductions, and overall survival (OS). DOR was measured from the time of initial PR or CR until documented progression from best response of cGVHD, time from initial response to start of additional systemic cGVHD therapy, or death. The 7-day LSS summary score was calculated based on the developer recommendations and was compared with the score from baseline; an improvement ≥7 points was considered clinically meaningful. […] Relative dose intensity (RDI) was used as a surrogate measure of drug tolerability and was defined as actual dose intensity/planned dose intensity, where dose intensity was defined as the cumulative dose over the duration of exposure (mg/d). Actual dose intensity captured the sum of actual doses received over the duration of exposure and incorporated dose reductions and/or interruptions.
The Hochberg procedure was used for multiplicity adjustment for the primary end point of best ORR. […] CI was calculated using the Clopper-Pearson interval (exact) method.

[3] = test system: human peripheral blood lymphocytes (HPBL); assay: in vitro chromosome aberration assay; type: cell-based
[4] = test system: patients with chronic GVHD; assay: Pooled adverse reactions and laboratory abnormalities, 83 adult chronic GVHD patients on 200 mg once daily (KD025-213 and KD025-208); type: in vivo, human; conditions: for Alanine Aminotransferase Increased / Alkaline Phosphatase Increased / Calcium Decreased / Creatinine Increased / Gamma Glutamyl Transferase Increased / Hemoglobin Decreased / Lymphocytes Decreased / Neutrophil Count Decreased / Phosphate Decreased / Platelets Decreased / Potassium Increased: Grade 0-1 Baseline
Excerpt: The median duration of treatment was 9.2 months (range 0.5 to 44.7 months).

[5] = single oral dose of radiolabeled belumosudil

Sequence of P-gp (P08183 whole entry): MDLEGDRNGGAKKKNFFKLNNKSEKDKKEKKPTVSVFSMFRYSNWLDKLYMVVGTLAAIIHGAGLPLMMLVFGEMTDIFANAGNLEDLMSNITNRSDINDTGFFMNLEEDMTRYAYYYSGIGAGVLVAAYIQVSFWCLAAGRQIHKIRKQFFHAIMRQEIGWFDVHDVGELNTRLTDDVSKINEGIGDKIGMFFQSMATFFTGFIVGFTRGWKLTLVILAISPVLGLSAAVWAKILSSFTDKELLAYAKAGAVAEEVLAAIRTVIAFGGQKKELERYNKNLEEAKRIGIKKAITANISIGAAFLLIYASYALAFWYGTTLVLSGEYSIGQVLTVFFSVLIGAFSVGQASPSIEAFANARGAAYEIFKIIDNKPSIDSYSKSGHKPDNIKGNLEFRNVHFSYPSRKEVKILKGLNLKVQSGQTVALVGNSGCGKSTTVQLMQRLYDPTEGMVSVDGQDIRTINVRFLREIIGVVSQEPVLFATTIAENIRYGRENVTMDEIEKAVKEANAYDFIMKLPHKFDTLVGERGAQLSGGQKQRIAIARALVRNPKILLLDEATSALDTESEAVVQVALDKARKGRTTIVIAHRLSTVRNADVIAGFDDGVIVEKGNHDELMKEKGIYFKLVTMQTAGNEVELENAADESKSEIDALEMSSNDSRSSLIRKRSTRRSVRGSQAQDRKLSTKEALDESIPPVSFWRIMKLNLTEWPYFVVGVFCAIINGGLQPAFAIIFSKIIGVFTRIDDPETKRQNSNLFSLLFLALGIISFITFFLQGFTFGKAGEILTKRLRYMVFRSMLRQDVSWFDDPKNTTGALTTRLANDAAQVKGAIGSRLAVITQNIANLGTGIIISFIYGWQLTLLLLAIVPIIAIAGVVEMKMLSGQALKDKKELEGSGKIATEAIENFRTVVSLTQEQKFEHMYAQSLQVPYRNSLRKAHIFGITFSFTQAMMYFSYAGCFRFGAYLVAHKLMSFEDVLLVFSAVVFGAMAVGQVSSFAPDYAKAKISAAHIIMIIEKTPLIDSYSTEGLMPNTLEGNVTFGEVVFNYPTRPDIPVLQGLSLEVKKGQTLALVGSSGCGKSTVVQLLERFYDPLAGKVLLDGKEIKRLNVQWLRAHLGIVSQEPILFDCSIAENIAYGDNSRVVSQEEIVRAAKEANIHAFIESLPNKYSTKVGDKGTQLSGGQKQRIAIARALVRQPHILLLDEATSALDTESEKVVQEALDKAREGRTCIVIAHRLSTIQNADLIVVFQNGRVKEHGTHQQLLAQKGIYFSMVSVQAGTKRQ
Sequence of human serum albumin (P02768 25-609): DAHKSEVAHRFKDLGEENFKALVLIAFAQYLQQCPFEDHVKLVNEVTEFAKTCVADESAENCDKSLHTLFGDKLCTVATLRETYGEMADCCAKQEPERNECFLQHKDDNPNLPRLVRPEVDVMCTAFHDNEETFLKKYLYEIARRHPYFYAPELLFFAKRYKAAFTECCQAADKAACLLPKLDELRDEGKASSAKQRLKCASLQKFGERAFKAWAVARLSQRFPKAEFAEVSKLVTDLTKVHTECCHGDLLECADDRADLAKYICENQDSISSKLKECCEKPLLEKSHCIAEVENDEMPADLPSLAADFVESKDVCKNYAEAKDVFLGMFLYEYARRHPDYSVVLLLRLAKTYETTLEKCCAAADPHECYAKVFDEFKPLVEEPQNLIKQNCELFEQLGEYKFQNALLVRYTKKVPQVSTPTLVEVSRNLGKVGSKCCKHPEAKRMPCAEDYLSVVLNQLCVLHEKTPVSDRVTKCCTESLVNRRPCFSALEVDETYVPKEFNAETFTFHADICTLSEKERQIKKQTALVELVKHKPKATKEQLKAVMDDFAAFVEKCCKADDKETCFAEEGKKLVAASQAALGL

CC(C)NC(=O)COc1cccc(-c2nc(Nc3ccc4[nH]ncc4c3)c3ccccc3n2)c1 [belumosudil, 2-{3-[4-(1H-indazol-5-ylamino)-2-quinazolinyl]phenoxy}-N-(propan-2-yl) acetamide]
AUC increase with high-fat and high-calorie meal vs fasted ([1]; single dose): 2 times
Cmax increase with high-fat and high-calorie meal vs fasted ([1]; single dose): 2.2 times
radioactivity recovered in feces [1, 5]: 85%
radioactivity recovered in feces as unchanged [1, 5]: 30%
radioactivity recovered in urine [1, 5]: less than 5%
inhibition of UGT1A1 (UGT1A1): inhibitor
binding to human serum albumin (human serum albumin): 99.9%
dose with adverse fertility findings (pre- or post-implantation loss, fewer viable embryos, abnormal sperm, testes/epididymis changes, reduced fertility) (rats): 275 mg/kg/day
inhibition of BCRP (BCRP): inhibits
P-gp substrate status (P-gp): substrate of P-gp
inhibition of P-gp (P-gp; at clinically relevant concentrations): inhibits
Upper respiratory tract infection [2]: (27) %
genotoxicity, chromosome aberration assay [3]: not genotoxic
Alanine Aminotransferase Increased ([4]; Grade 2-4 Max Post): 7%
Alkaline Phosphatase Increased ([4]; Grade 2-4 Max Post): 9%
Calcium Decreased ([4]; Grade 2-4 Max Post): 12%
Creatinine Increased ([4]; Grade 2-4 Max Post): 4%
Gamma Glutamyl Transferase Increased ([4]; Grade 2-4 Max Post): 21%
Hemoglobin Decreased ([4]; Grade 2-4 Max Post): 11%
Lymphocytes Decreased ([4]; Grade 2-4 Max Post): 29%
Neutrophil Count Decreased ([4]; Grade 2-4 Max Post): 8%
Phosphate Decreased ([4]; Grade 2-4 Max Post): 28%
Platelets Decreased ([4]; Grade 2-4 Max Post): 10%
Potassium Increased ([4]; Grade 2-4 Max Post): 7%
Alanine Aminotransferase Increased ([4]; Grade 3-4 Max Post): 2%
Alkaline Phosphatase Increased ([4]; Grade 3-4 Max Post): 0%
Calcium Decreased ([4]; Grade 3-4 Max Post): 1%
Creatinine Increased ([4]; Grade 3-4 Max Post): 0%
Gamma Glutamyl Transferase Increased ([4]; Grade 3-4 Max Post): 11%
Hemoglobin Decreased ([4]; Grade 3-4 Max Post): 1%
Lymphocytes Decreased ([4]; Grade 3-4 Max Post): 13%
Neutrophil Count Decreased ([4]; Grade 3-4 Max Post): 4%
Phosphate Decreased ([4]; Grade 3-4 Max Post): 7%
Platelets Decreased ([4]; Grade 3-4 Max Post): 5%
Potassium Increased ([4]; Grade 3-4 Max Post): 1%
Abdominal pain, All Grades ([4]; N=83): 22%
Abdominal pain, Grades 3-4 ([4]; N=83): 1%
Arthralgia, All Grades ([4]; N=83): 15%
Arthralgia, Grades 3-4 ([4]; N=83): 2%
Asthenia, All Grades ([4]; N=83): 46%
Asthenia, Grades 3-4 ([4]; N=83): 4%
Bacterial infection, All Grades ([4]; N=83): 16%
Bacterial infection, Grades 3-4 ([4]; N=83): 4%
Cough, All Grades ([4]; N=83): 30%
Cough, Grades 3-4 ([4]; N=83): 0%
Decreased appetite, All Grades ([4]; N=83): 17%
Decreased appetite, Grades 3-4 ([4]; N=83): 1%
Diarrhea, All Grades ([4]; N=83): 35%
Diarrhea, Grades 3-4 ([4]; N=83): 5%
Dysphagia, All Grades ([4]; N=83): 16%
Dysphagia, Grades 3-4 ([4]; N=83): 0%
Dyspnea, All Grades ([4]; N=83): 33%
Dyspnea, Grades 3-4 ([4]; N=83): 5%
Edema, All Grades ([4]; N=83): 27%
Edema, Grades 3-4 ([4]; N=83): 1%
Headache, All Grades ([4]; N=83): 21%
Headache, Grades 3-4 ([4]; N=83): 0%
Hemorrhage, All Grades ([4]; N=83): 23%
Hemorrhage, Grades 3-4 ([4]; N=83): 5%
Hypertension, All Grades ([4]; N=83): 21%
Hypertension, Grades 3-4 ([4]; N=83): 7%
Infection (pathogen not specified), All Grades ([4]; N=83): 53%
Infection (pathogen not specified), Grades 3-4 ([4]; N=83): 16%
Muscle spasm, All Grades ([4]; N=83): 17%
Muscle spasm, Grades 3-4 ([4]; N=83): 0%
Musculoskeletal pain, All Grades ([4]; N=83): 22%
Musculoskeletal pain, Grades 3-4 ([4]; N=83): 4%
Nausea (includes vomiting), All Grades ([4]; N=83): 42%
Nausea (includes vomiting), Grades 3-4 ([4]; N=83): 4%
Pruritus, All Grades ([4]; N=83): 11%
Pruritus, Grades 3-4 ([4]; N=83): 0%
Pyrexia, All Grades ([4]; N=83): 18%
Pyrexia, Grades 3-4 ([4]; N=83): 1%
Rash, All Grades ([4]; N=83): 12%
Rash, Grades 3-4 ([4]; N=83): 0%
Viral infection, All Grades ([4]; N=83): 19%
Viral infection, Grades 3-4 ([4]; N=83): 4%
adverse reactions leading to dose interruption ([4]; N=83): 29%
dose interruption due to asthenia, dyspnea, hemorrhage, hypotension, liver function test abnormal, nausea, pyrexia, edema, renal failure (each) ([4]; N=83): 2%
dose interruption due to diarrhea ([4]; N=83): 4%
dose interruption due to infections ([4]; N=83): 11%
permanent discontinuation due to adverse reactions ([4]; N=83): 18%
permanent discontinuation due to nausea ([4]; N=83): 4%

Reference: patent publication US12097202B2 (Kadmon Corporation, LLC, priority 2022, dated 2024)
